Patent US20230067942A1, “IMPROVEMENT IN PULMONARY ARTERIAL […] INHALED NITRIC OXIDE (iNO) TREATMENT” (BELLEROPHON THERAPEUTICS, priority 2020, published 2023)
Entries after “also recorded” stand apart in the source; their conditions may differ.

Tested on: patients with PH associated with PF (PH-PF)
Assay: Acute escalating doses of pulsed iNO; hemodynamics by right heart catheterization (RHC) in PH-PF patients
Type: in vivo, human
Conditions: for Pulmonary arterial compliance (PAC), change from baseline: nine PH-PF patients on oxygen, median change
Description: FIG. 1 depicts the study design for acute iNO dose escalation. Nine PH-PF subjects were administered escalating doses of pulsed iNO (iNO30 to iNO75 mcg/kg IBW/hrs) with continuous oxygen.
FIG. 2, comprising FIGS. 2A-2C, are graphs depicting pulmonary arterial compliance, or PAC (FIG. 2A), pulmonary vascular resistance, or PVR (FIG. 2B), and mean pulmonary arterial pressure, or mPAP (FIG. 2C) for inhaled nitric oxide at 30 mcg/kg IBW/hr (iNO30), 45 mcg/kg IBW/hr (iNO45), and 75 mcg/kg IBW/hr (iNO75). The data is based on nine pulmonary hypertension—interstitial lung disease (ILD) patients. Bar graphs represent median change from baseline at each assessment for all available subjects. […] Statistical analysis was based on the Wilcoxon Rank Test.
This study was performed to determine whether increasing doses of pulsed iNO can improve PAC in patients with PH-PF on long-term oxygen therapy with intermediate or high probability of pulmonary hypertension (PH) as determined by echocardiography. Nine patients were acutely challenged with escalating doses of iNO (iNO30, iNO45, and iNO75) over a 90 minute period. Each dose was administered for 10 minutes, with 10 minute “washout” periods between doses. Baseline measurements were taken from timepoint 0-30 minutes. iNO30 was dosed at 30 mcg/kg IBW/hrs from timepoint 30-40 minutes, iNO45 at 45 mcg/kg IBW/hrs from timepoint 50-60 minutes, and iNO75 was dosed at 75 mcg/kg IBW/hrs from timepoint 70-80 minutes (see FIG. 1). The demographics of the patient population is described in Table 1, and Baseline Hemodynamics in Table 2, below.
PAC was derived by stroke volume divided by (SPAP-DPAP) collected during right heart catheterization (RHC). Patients were on sufficient supplemental oxygen at baseline to maintain an SpO2 of at least 92% at rest. Upon completion of the RHC, subjects were offered the opportunity to continue on to chronic iNO therapy in an extension study. 6 minute walk distance (6MWD) was assessed prior to RHC treatment in the extension study.

[1] = all subjects, doses not separated
[2] = iNO30 (30 mcg/kg IBW/hr, pulsed, 10 min), nine PH-PF patients, Wilcoxon Rank Test
[3] = iNO45 (45 mcg/kg IBW/hr, pulsed, 10 min), nine PH-PF patients, Wilcoxon Rank Test
[4] = iNO75 (75 mcg/kg IBW/hr, pulsed, 10 min), nine PH-PF patients, Wilcoxon Rank Test

## [N]=O [iNO, nitric oxide]
[1]
  PAC on pulsed iNO versus average baseline: increase
  PVR on pulsed iNO versus average baseline: reduction; also recorded: statistically and clinically significant improvements
  mPAP on pulsed iNO versus average baseline: statistically and clinically significant improvements; also recorded: reduction
All subjects, doses not separated, listed as Inhaled NO
  PAC on pulsed iNO versus average baseline: improves PAC
iNO30 (30 mcg/kg IBW/hr, pulsed, 10 min), Wilcoxon Rank Test
  Pulmonary arterial compliance (PAC), change from baseline: improved with significance
[2]
  Mean pulmonary arterial pressure (mPAP), change from baseline: statistically significant improvement; also recorded: improved with significance
  Pulmonary vascular resistance (PVR), change from baseline: statistically significant improvement; also recorded: improved with significance
iNO45 (45 mcg/kg IBW/hr, pulsed, 10 min), Wilcoxon Rank Test
  Pulmonary arterial compliance (PAC), change from baseline: improved with significance
[3]
  Mean pulmonary arterial pressure (mPAP), change from baseline: statistically significant improvement; also recorded: improved with significance
  Pulmonary vascular resistance (PVR), change from baseline: statistically significant improvement; also recorded: improved with significance
iNO45 versus iNO30, nine PH-PF patients, Wilcoxon Rank Test
  Pulmonary vascular resistance (PVR), further change between iNO30 and iNO45 doses: additional statistically significant improvement; also recorded: further improved with significance
iNO75 (75 mcg/kg IBW/hr, pulsed, 10 min), Wilcoxon Rank Test
  Pulmonary arterial compliance (PAC), change from baseline: improvement in PAC
[4]
  Mean pulmonary arterial pressure (mPAP), change from baseline: statistically significant improvement; also recorded: improved with significance
  Pulmonary vascular resistance (PVR), change from baseline: statistically significant improvement; also recorded: improved with significance
